Measured values as given in article PMC11026403 (Communications Biology, 2024).

Target: A/Denmark/524/2009 (H1N1)pdm09 NA-H274 (Influenza A virus, UniProt C3W5S3)
Type: biochemical

## CCC(CC)[C@H](NC(C)=O)[C@@H]1[C@H](O)[C@@H](C(=O)O)C[C@H]1N=C(N)N [peramivir]
  IC50: 0.1 nM
